From PubChem BioAssay (NCI)
“And” between values parts separate entries of the source, which are not always exact repeats. Equal entries are not always repeated.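 Results reflect a 48-hour exposure of cells in 96-well plates to compound at five concentrations. The concentration for 50% growth inhibition is given as GI50. Definition used: TGI = concentration required for complete inhibition of growth.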

How the values were obtained:
Assay in all cases: DTP human tumour cell line panel, 48 h
SF-539 CNS = tested on: SF-539 CNS
HT29 colon = tested on: HT29 colon
RPMI-8226 leukemia = tested on: RPMI-8226 leukemia
OVCAR-5 ovarian = tested on: OVCAR-5 ovarian
KM12 colon = tested on: KM12 colon
SR leukemia = tested on: SR leukemia
EKVX NSCLC = tested on: EKVX NSCLC
786-0 renal = tested on: 786-0 renal
CCRF-CEM leukemia = tested on: CCRF-CEM leukemia
OVCAR-4 ovarian = tested on: OVCAR-4 ovarian

SMILES | GI50 (SF-539 CNS) | TGI (SF-539 CNS) | GI50 (HT29 colon) | TGI (HT29 colon) | GI50 (RPMI-8226 leukemia) | TGI (RPMI-8226 leukemia) | GI50 (OVCAR-5 ovarian) | TGI (OVCAR-5 ovarian) | GI50 (KM12 colon) | TGI (KM12 colon) | GI50 (SR leukemia) | TGI (SR leukemia) | GI50 (EKVX NSCLC) | TGI (EKVX NSCLC) | GI50 (786-0 renal) | TGI (786-0 renal) | GI50 (CCRF-CEM leukemia) | TGI (CCRF-CEM leukemia) | GI50 (OVCAR-4 ovarian) | TGI (OVCAR-4 ovarian)
CC(=O)/C(Br)=C/c1ccc(Br)o1 | 5 µM | 10.8 µM | 4.21 µM | 14.6 µM | 4.73 µM | 13.1 µM | 13.7 µM | 34.4 µM | 12 µM | 25.9 µM | 1.72 µM | 5.42 µM | 14.6 µM | 28.1 µM | 16.5 µM | 34.2 µM | 2.04 µM | 5.85 µM | 9.35 µM | 22 µM
CC(=O)Nc1ccc(S(=O)(=O)N=S(C)C)cc1 | – | > 100 µM | – | > 100 µM | – | > 100 µM | – | > 100 µM | – | > 100 µM | – | > 100 µM | – | > 100 µM | – | > 100 µM | – | > 100 µM | – | > 100 µM
Cc1ccc(Cl)c(NS(=O)(=O)c2ccc(-c3cnc(C4CC4)o3)cc2)c1 | 0.0803 µM | 1.54 µM | 0.0517 µM | 16.2 µM | 0.318 µM | 24.8 µM | 0.439 µM | > 100 µM | 0.07 µM | 22.4 µM | 0.0549 µM | > 63.3 µM | 0.314 µM | > 100 µM | 0.0772 µM | > 100 µM | 0.0777 µM | > 100 µM | 2.1 µM | 80.6 µM
COc1ccc(C(=O)c2cc3c(N)c(C(=O)Nc4cccc(Br)c4C)sc3nc2C)cc1 | 0.0256 µM | 0.0809 µM | 0.0509 µM | > 100 µM | 0.037 µM | – | 0.187 µM | > 100 µM | 0.0684 µM | > 36.3 µM | 0.0354 µM | – | 0.0954 µM | > 100 µM | 0.0616 µM | > 100 µM | 0.0409 µM | > 100 µM | 0.474 µM | > 100 µM
CC[C@H](C)[C@H](NC(=O)[C@H]1CCCCN1C)C(=O)N(C)[C@H](C[C@@H](OC(C)=O)c1cccc(C(=O)N[C@@H](Cc2ccccc2)C[C@H](C)C(=O)O)n1)C(C)C | 0.00148 µM and < 0.0025 µM | 0.00742 µM and < 0.0025 µM | 0.00168 µM | – | 0.000816 µM and 0.0025 µM | > 25 µM | – | > 25 µM | 0.00116 µM and 0.0025 µM | > 25 µM | 0.000529 µM and 0.0025 µM | > 25 µM | 0.00493 µM and 0.0025 µM | > 25 µM | 0.00555 µM and 0.0025 µM | > 25 µM | 0.000818 µM and 0.0025 µM | > 25 µM | 0.057 µM and 0.0168 µM | > 25 µM
COc1cc(/C=C(\NC(=O)c2ccccc2)c2nc3ncncc3[nH]2)cc(OC)c1OC | – | > 100 µM | – | > 100 µM | – | – | – | > 100 µM | – | > 100 µM | – | > 100 µM | – | > 100 µM | – | > 100 µM | – | > 100 µM | – | > 100 µM
COc1ccc(C2C(C#N)=C(N)Oc3c2sc2c(Br)cccc32)cc1 (stereo not drawn) | – | – | 3.8 µM | 11.2 µM | 2.9 µM | 12.5 µM | 8.95 µM | 26.5 µM | 1.92 µM | 14 µM | 0.473 µM | 3.37 µM | 4.38 µM | 21 µM | 3.25 µM | 13 µM | 1.63 µM | 7.02 µM | 3.02 µM | 21.9 µM
CCOc1ccc(C(C[N+](=O)[O-])Sc2ccccc2N)cc1 (stereo not drawn) | 1.89 µM | 3.94 µM | 2.07 µM | 4.19 µM | 2.23 µM | 5.32 µM | 11.2 µM | 23.2 µM | 3.27 µM | 10.2 µM | 2.3 µM | 5.17 µM | 14.8 µM | 30 µM | 5.11 µM | 17.1 µM | 3.67 µM | 18.9 µM | 13 µM | 26 µM
O=C(Nc1cc(Cl)ccc1O)c1ccccc1Nc1ccnc(C(F)(F)F)c1 | 2.7 µM | 9.16 µM | 3.27 µM | 11.5 µM | 1.94 µM | 7.43 µM | 5.6 µM | 23.3 µM | 2.74 µM | 8.13 µM | 2.83 µM | 11.6 µM | 2.92 µM | 10.4 µM | 3.28 µM | 8.8 µM | 3.12 µM | 9.63 µM | 2.29 µM | 13.2 µM
Clc1cccc(CNc2c3ccccc3nc3ccccc23)c1 | 1.78 µM | 3.32 µM | 1.98 µM | 10.2 µM | 1.74 µM | 4.18 µM | 2.06 µM | 6.54 µM | 2.49 µM | 7.7 µM | 1.47 µM | 4.55 µM | 2.76 µM | 11.2 µM | 1.66 µM | 3.2 µM | 2.31 µM | 8.77 µM | 2.15 µM | 7.95 µM
O=C(NCCOCCOCCOCCNC(=O)c1cc2c(o1)C(=O)c1ccccc1C2=O)NC12CC3CC(CC(C3)C1)C2 | 1.59 µM | 3.16 µM | 2.6 µM | 6.79 µM | 1.87 µM | 5.63 µM | 1.83 µM | 3.28 µM | 3.34 µM | 13 µM | 2.37 µM | 11.7 µM | 2.57 µM | 7.07 µM | 2.89 µM | 11 µM | 3.23 µM | > 100 µM | 1.02 µM | 2.27 µM
COc1cc([N+](=O)[O-])c(S(=O)(=O)O)cc1-n1nc(C(=O)Nc2ccccc2)n[n+]1-c1cc(S(=O)(=O)[O-])c([N+](=O)[O-])cc1OC | – | – | – | > 100 µM | – | > 100 µM | – | > 100 µM | – | > 100 µM | – | > 100 µM | – | > 100 µM | – | > 100 µM | – | > 100 µM | – | > 100 µM
CN(C)Cc1ccc(NC(=O)c2cncc(C#Cc3cnc(N)c4ncccc34)c2)cc1F | 1.53 µM | 3.07 µM | – | – | 1.97 µM | 4.75 µM | 2.08 µM | 3.92 µM | 1.7 µM | 3.16 µM | 1.93 µM | 5.93 µM | 2 µM | 4.01 µM | 1.86 µM | 3.6 µM | 2.29 µM | 6.66 µM | – | –
COc1ccccc1[As]=[As]c1ccccc1OC (stereo not drawn) | 0.0383 µM | 0.144 µM | 0.0405 µM | 0.174 µM | 0.0278 µM | 0.0832 µM | 0.0627 µM | 0.181 µM | 0.11 µM | 0.24 µM | 0.0277 µM | 0.0707 µM | 0.12 µM | 0.271 µM | 0.0377 µM | 0.0853 µM | 0.026 µM | 0.113 µM | 0.0372 µM | 0.146 µM
